In patent US20240400564A1 (Syndax Pharmaceuticals, Inc, priority 2021, published 2024):

Experiments:
hERG = hERG (Homo sapiens, UniProt Q12809); assay: Patch clamp assay (hERG tail currents, whole-cell)
[1] = tested on: MLLr leukemia cell line MV4-11; assay: Cell proliferation assay MV4;11 (CellTiter-Glo, 72 hours); type: cell-based; settings: Homo sapiens; MV4-11 cells, 72 hours, CellTiter-Glo; read-out: MV4; 11 IC50
In short: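 Cells in IMDM/10% FBS, seeded from a 15,000 cells/ml suspension, were exposed for 72 h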

hERG, sequence (Q12809 whole entry): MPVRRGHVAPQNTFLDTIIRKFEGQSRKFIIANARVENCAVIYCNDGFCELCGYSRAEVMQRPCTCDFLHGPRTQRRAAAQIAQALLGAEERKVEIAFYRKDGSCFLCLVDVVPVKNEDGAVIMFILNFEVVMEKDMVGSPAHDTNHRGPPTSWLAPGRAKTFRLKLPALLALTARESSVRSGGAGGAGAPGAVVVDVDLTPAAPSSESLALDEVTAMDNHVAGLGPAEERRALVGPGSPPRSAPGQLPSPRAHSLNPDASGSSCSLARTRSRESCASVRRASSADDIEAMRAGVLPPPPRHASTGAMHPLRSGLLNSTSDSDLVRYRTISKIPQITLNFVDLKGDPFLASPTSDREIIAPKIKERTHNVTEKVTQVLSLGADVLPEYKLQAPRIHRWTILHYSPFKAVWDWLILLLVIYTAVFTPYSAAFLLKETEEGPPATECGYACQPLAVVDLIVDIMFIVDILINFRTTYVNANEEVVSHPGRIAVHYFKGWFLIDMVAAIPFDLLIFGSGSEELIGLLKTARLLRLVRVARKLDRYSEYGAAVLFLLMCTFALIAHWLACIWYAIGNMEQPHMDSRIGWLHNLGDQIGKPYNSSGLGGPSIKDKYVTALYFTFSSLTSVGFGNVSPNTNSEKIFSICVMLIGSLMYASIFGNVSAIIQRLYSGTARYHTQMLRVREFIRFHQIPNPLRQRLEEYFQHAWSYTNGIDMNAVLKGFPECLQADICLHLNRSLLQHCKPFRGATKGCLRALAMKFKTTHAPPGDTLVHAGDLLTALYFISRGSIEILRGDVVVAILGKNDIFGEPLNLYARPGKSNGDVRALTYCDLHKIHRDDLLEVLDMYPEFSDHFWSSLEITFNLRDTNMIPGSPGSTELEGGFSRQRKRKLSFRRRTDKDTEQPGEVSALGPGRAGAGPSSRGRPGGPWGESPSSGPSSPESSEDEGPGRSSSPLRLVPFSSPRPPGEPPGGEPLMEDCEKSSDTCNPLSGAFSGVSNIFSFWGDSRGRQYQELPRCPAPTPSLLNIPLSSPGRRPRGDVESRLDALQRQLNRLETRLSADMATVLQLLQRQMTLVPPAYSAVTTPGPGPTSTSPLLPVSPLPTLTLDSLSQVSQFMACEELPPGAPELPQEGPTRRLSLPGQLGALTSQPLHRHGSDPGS

SMILES | IC50 [1] [nM] | hERG % Remaining (hERG; 10 μM compound) | hERG % Remaining (hERG; 30 μM compound)
CC(C)N(C(=O)c1cc(F)ccc1Oc1cncnc1N1CC2(CCN(C[C@@H]3CC[C@@H](NS(=O)(=O)c4cnn(C5CC5)c4)CO3)CC2)C1)C(C)C [Example 83, 2-((4-(7-(((2S,5R)-5-((1-Cyclopropyl-1H-pyrazole)-4-sulfonamido)tetrahydro-2H-pyran-2-yl)methyl)-2,7-diazaspiro[3.5]nonan-2-yl)pyrimidin-5-yl)oxy)-5-fluoro-N,N-diisopropylbenzamide] | < 100 | +++ (≥66%) | ++ (233% and ≤66%)
Cc1ncc(S(=O)(=O)N[C@@H]2CC[C@@H](CN3CCC4(CC3)CN(c3ncncc3Oc3ccc(F)cc3C(=O)N(C(C)C)C(C)C)C4)OC2)s1 [Example 84, 5-Fluoro-N,N-diisopropyl-2-((4-(7-(((2S,5R)-5-((2-methylthiazole)-5-sulfonamido)tetrahydro-2H-pyran-2-yl)methyl)-2,7-diazaspiro[3.5]nonan-2-yl)pyrimidin-5-yl)oxy)benzamide] | < 100 | ++ (233% and ≤66%) | + (<33%)
CC(C)N(C(=O)c1cc(F)ccc1Oc1cncnc1N1CC2(CCN(C[C@@H]3CC[C@@H](NS(=O)(=O)c4cnn(C(F)F)c4)CO3)CC2)C1)C(C)C [Example 85, 2-((4-(7-(((2S,5R)-5-((1-(Difluoromethyl)-1H-pyrazole)-4-sulfonamido)tetrahydro-2H-pyran-2-yl)methyl)-2,7-diazaspiro[3.5]nonan-2-yl)pyrimidin-5-yl)oxy)-5-fluoro-N,N-diisopropylbenzamide] | < 100 | ++ (233% and ≤66%) | + (<33%)
CC(C)N(C(=O)c1cc(F)ccc1Oc1cncnc1N1CC2(CCN(C[C@@H]3CC[C@@H](NS(=O)(=O)c4cnn(C)c4)CO3)CC2)C1)C(C)C [Example 86, 5-Fluoro-N,N-diisopropyl-2-((4-(7-(((2S,5R)-5-((1-methyl-1H-pyrazole)-4-sulfonamido)tetrahydro-2H-pyran-2-yl)methyl)-2,7-diazaspiro[3.5]nonan-2-2-yl)pyrimidin-5-yl)oxy)benzamide] | < 100 | +++ (≥66%) | +++ (≥66%)
CC(C)N(C(=O)c1cc(F)ccc1Oc1cncnc1N1CC2(CCN(C[C@@H]3CC[C@@H](NS(=O)(=O)c4ccn(C)n4)CO3)CC2)C1)C(C)C [Example 87, 5-Fluoro-N,N-diisopropyl-2-((4-(7-(((2S,5R)-5-((1-methyl-1H-pyrazole)-3-sulfonamido)tetrahydro-2H-pyran-2-yl)methyl)-2,7-diazaspiro[3.5]nonan-2-yl)pyrimidin-5-yl)oxy)benzamide] | < 100 |  | +++ (≥66%)
Cc1nc(S(=O)(=O)N[C@@H]2CC[C@@H](CN3CCC4(CC3)CN(c3ncncc3Oc3ccc(F)cc3C(=O)N(C(C)C)C(C)C)C4)OC2)co1 [Example 91, 5-Fluoro-N,N-diisopropyl-2-((4-(7-(((2S,5R)-5-((2-methyloxazole)-4-sulfonamido)tetrahydro-2H-pyran-2-yl)methyl)-2,7-diazaspiro[3.5]nonan-2-yl)pyrimidin-5-yl)oxy)benzamide] | < 100 |  | ++ (233% and ≤66%)
CC(C)N(CC(F)F)C(=O)c1cc(F)ccc1Oc1cncnc1N1CC2(CCN(C[C@@H]3CC[C@@H](NS(=O)(=O)c4cnn(C)c4)CO3)CC2)C1 [Example 100, N-(2,2-Difluoroethyl)-5-fluoro-N-isopropyl-2-((4-(7-(((2S,5R)-5-((1-methyl-1H-pyrazole)-4-sulfonamido)tetrahydro-2H-pyran-2-yl)methyl)-2,7-diazaspiro[3.5]nonan-2-yl)pyrimidin-5-yl)oxy)benzamide] | < 100 | +++ (≥66%) | +++ (≥66%)
CC(C)N(CC(F)F)C(=O)c1cc(F)ccc1Oc1cncnc1N1CC2(CCN(C[C@@H]3CC[C@@H](NS(=O)(=O)c4ccn(C)n4)CO3)CC2)C1 [Example 103, N-(2,2-Difluoroethyl)-5-fluoro-N-isopropyl-2-((4-(7-(((2S,5R)-5-((1-methyl-1H-pyrazole)-3-sulfonamido)tetrahydro-2H-pyran-2-yl)methyl)-2,7-diazaspiro[3.5]nonan-2-yl)pyrimidin-5-yl)oxy)benzamide] | < 100 |  | +++ (≥66%)

Second part, led by results:

IC50 [1] [nM] | SMILES | hERG % Remaining (hERG; 10 μM compound) | hERG % Remaining (hERG; 30 μM compound)
< 100 | Cc1c(S(=O)(=O)N[C@@H]2CC[C@@H](CN3CCC4(CC3)CN(c3ncncc3Oc3ccc(F)cc3C(=O)N(CC(F)F)C(C)C)C4)OC2)cnn1C [Example 104, N-(2,2-Difluoroethyl)-2-((4-(7-(((2S,5R)-5-((1,5-dimethyl-1H-pyrazole)-4-sulfonamido)tetrahydro-2H-pyran-2-yl)methyl)-2,7-diazaspiro[3.5]nonan-2-yl)pyrimidin-5-yl)oxy)-5-fluoro-N-isopropylbenzamide] |  | +++ (≥66%)
< 100 | Cc1nn(C)cc1S(=O)(=O)N[C@@H]1CC[C@@H](CN2CCC3(CC2)CN(c2ncncc2Oc2ccc(F)cc2C(=O)N(CC(F)F)C(C)C)C3)OC1 [Example 105, N-(2,2-Difluoroethyl)-2-((4-(7-(((2S,5R)-5-((1,3-dimethyl-1H-pyrazole)-4-sulfonamido)tetrahydro-2H-pyran-2-yl)methyl)-2,7-diazaspiro[3.5]nonan-2-yl)pyrimidin-5-yl)oxy)-5-fluoro-N-isopropylbenzamide] |  | +++ (≥66%)
< 100 | CC(C)N(C(=O)c1cc(F)ccc1Oc1cncnc1N1CC2(CCN(C[C@@H]3CC[C@@H](NS(=O)(=O)c4cnn(C)c4)CO3)CC2)C1)C1CC(F)(F)C1 [Example 156, N-(3,3-Difluorocyclobutyl)-5-fluoro-N-isopropyl-2-((4-(7-(((2S,5R)-5-((1-methyl-1H-pyrazole)-4-sulfonamido)tetrahydro-2H-pyran-2-yl)methyl)-2,7-diazaspiro[3.5]nonan-2-yl)pyrimidin-5-yl)oxy)benzamide] |  | +++ (≥66%)
< 100 | CCN(C(=O)c1cc(F)ccc1Oc1cncnc1N1CC2(CCN(C[C@@H]3CC[C@@H](NS(=O)(=O)N4CCC[C@H]4C)CO3)CC2)C1)C(C)C [Example 200, N-Ethyl-5-fluoro-N-isopropyl-2-((4-(7-(((2S,5R)-5-(((R)-2-methylpyrrolidine)-1-sulfonamido)tetrahydro-2H-pyran-2-yl)methyl)-2,7-diazaspiro[3.5]nonan-2-yl)pyrimidin-5-yl)oxy)benzamide] | ++ (233% and ≤66%) | + (<33%)
< 100 | CCN(C(=O)c1cc(F)ccc1Oc1cncnc1N1CC2(CCN(C[C@@H]3CC[C@@H](NS(=O)(=O)N4CCC[C@@H]4C)CO3)CC2)C1)C(C)C [Example 201, N-Ethyl-5-fluoro-N-isopropyl-2-((4-(7-(((2S,5R)-5-(((S)-2-methylpyrrolidine)-1-sulfonamido)tetrahydro-2H-pyran-2-yl)methyl)-2,7-diazaspiro[3.5]nonan-2-yl)pyrimidin-5-yl)oxy)benzamide] | + (<33%) | + (<33%)
< 100 | CC(C)N(C(=O)c1cc(F)ccc1Oc1cncnc1N1CC2(CCN(C[C@@H]3CC[C@@H](NS(=O)(=O)N4CCC[C@@H]4C)CO3)CC2)C1)C(C)C [Example 202, 5-Fluoro-N,N-diisopropyl-2-((4-(7-(((2S,5R)-5-(((S)-2-methylpyrrolidine)-1-sulfonamido)tetrahydro-2H-pyran-2-yl)methyl)-2,7-diazaspiro[3.5]nonan-2-yl)pyrimidin-5-yl)oxy)benzamide] |  | + (<33%)
< 100 | CC(C)N(C(=O)c1cc(F)ccc1Oc1cncnc1N1CC2(CCN(C[C@@H]3CC[C@@H](NS(=O)(=O)N4CCC[C@H]4C)CO3)CC2)C1)C(C)C [Example 203, 5-Fluoro-N,N-diisopropyl-2-((4-(7-(((2S,5R)-5-(((R)-2-methylpyrrolidine)-1-sulfonamido)tetrahydro-2H-pyran-2-yl)methyl)-2,7-diazaspiro[3.5]nonan-2-yl)pyrimidin-5-yl)oxy)benzamide] |  | + (<33%)
< 100 | C[C@@H]1COC[C@@H](C)N1C(=O)c1cc(F)ccc1Oc1cncnc1N1CC2(CCN(C[C@@H]3CC[C@@H](NS(=O)(=O)N4CCC[C@H]4C)CO3)CC2)C1 [Example 208, (R)-N-((3R,6S)-6-((2-(5-(2-((3R,5R)-3,5-Dimethylmorpholine-4-carbonyl)-4-fluorophenoxy)pyrimidin-4-yl)-2,7-diazaspiro[3.5]nonan-7-yl)methyl)tetrahydro-2H-pyran-3-yl)-2-methylpyrrolidine-1-sulfonamide] |  | +++ (≥66%)
< 100 | CO[C@H]1CCN(S(=O)(=O)N[C@@H]2CC[C@@H](CN3CCC4(CC3)CN(c3ncncc3Oc3ccc(F)cc3C(=O)N(C(C)C)C(C)C)C4)OC2)C1 [Example 210, 5-Fluoro-N,N-diisopropyl-2-((4-(7-(((2S,5R)-5-(((S)-3-methoxypyrrolidine)-1-sulfonamido)tetrahydro-2H-pyran-2-yl)methyl)-2,7-diazaspiro[3.5]nonan-2-yl)pyrimidin-5-yl)oxy)benzamide] |  | +++ (≥66%)
< 100 | CO[C@@H]1CCN(S(=O)(=O)N[C@@H]2CC[C@@H](CN3CCC4(CC3)CN(c3ncncc3Oc3ccc(F)cc3C(=O)N(C(C)C)C(C)C)C4)OC2)C1 [Example 211, 5-Fluoro-N,N-diisopropyl-2-((4-(7-(((2S,5R)-5-(((R)-3-methoxypyrrolidine)-1-sulfonamido)tetrahydro-2H-pyran-2-yl)methyl)-2,7-diazaspiro[3.5]nonan-2-yl)pyrimidin-5-yl)oxy)benzamide] |  | +++ (≥66%)
< 100 | CCN(C(=O)c1cc(F)ccc1Oc1cncnc1N1CC2(CCN(C[C@@H]3CC[C@@H](NS(=O)(=O)c4ccc(=O)[nH]c4C)CO3)CC2)C1)C(C)C [Example 217, N-Ethyl-5-fluoro-N-isopropyl-2-((4-(7-(((2S,5R)-5-((2-methyl-6-oxo-1,6-dihydropyridine)-3-sulfonamido)tetrahydro-2H-pyran-2-yl)methyl)-2,7-diazaspiro[3.5]nonan-2-yl)pyrimidin-5-yl)oxy)benzamide] |  | +++ (≥66%)
